Measurements reported in patent US6673937B2, “Syntheses and methods of use of new antimitotic agents” (The University of Pittsburgh, priority 2000, dated 2004).

What was measured:
[1] = system: 1 A9, 1 A9/PTX10 and 1 A9/PTX22 cells; experiment: Growth inhibition of paclitaxel-sensitive and -resistant 1A9 cells; assay type: cell-based, human
Protocol: Two compounds, 24 referred to herein as SR-4 and 27 referred to herein as SR-7, were examined in greater detail as to their effects on biological activity. The proliferation of MCF-7, MDA-MB-231 and SV40 transformed mouse embryonic fibroblasts was measured by a previously described colorimetric assay (Wipf P, Jung J-K, Rodriguez S, Lazo JS Synthesis and biological evaluation of Deoxypreussomerin A and Palmarumycin CP 1 and related naphthoquinone spiroketals. Tetrahedron 57:283-296, 2001 and Vogt A, Rice RL, Settineri CE, Yokokawa F, Yokokawa S, Wipf P and Lazo JS (1998) Disruption of insulin-like growth factor-I signaling and down-regulation of Cdc2 by SC-ααδ9, a novel small molecule antisignaling agent identified in a targeted array library. J Pharmacol Exptl Therap 287:806-813.). Briefly, the inventors seeded 4,000-6,000 cells per well in microtiter plates. […] Plates were incubated for 3 hours in the dark and total cell number was determined by spectrophotometrically at 540 nm as previously described (Vogt A, Rice RL, Settineri CE, Yokokawa F, Yokokawa S, Wipf P and Lazo JS (1998) Disruption of insulin-like growth factor-1 signaling and down-regulation of Cdc2 by SC-ααδ9, a novel small molecule antisignaling agent identified in a targeted array library. J Pharmacol Exptl Therap 287:806-813.). […]

[2] = system: mouse embryonic fibroblasts transformed with SV40 large T antigen; experiment: Proliferation of SV40 transformed mouse embryonic fibroblasts; assay type: cell-based; conditions: Mus musculus, Fibroblast; data not shown; read-out: concentration required to inhibit growth by 50%
Protocol: Two compounds, 24 referred to herein as SR-4 and 27 referred to herein as SR-7, were examined in greater detail as to their effects on biological activity. The proliferation of MCF-7, MDA-MB-231 and SV40 transformed mouse embryonic fibroblasts was measured by a previously described colorimetric assay (Wipf P, Jung J-K, Rodriguez S, Lazo JS Synthesis and biological evaluation of Deoxypreussomerin A and Palmarumycin CP 1 and related naphthoquinone spiroketals. Tetrahedron 57:283-296, 2001 and Vogt A, Rice RL, Settineri CE, Yokokawa F, Yokokawa S, Wipf P and Lazo JS (1998) Disruption of insulin-like growth factor-I signaling and down-regulation of Cdc2 by SC-ααδ9, a novel small molecule antisignaling agent identified in a targeted array library. J Pharmacol Exptl Therap 287:806-813.). Briefly, the inventors seeded 4,000-6,000 cells per well in microtiter plates. Cells were allowed to attach overnight and treated with vehicle or compounds for 72 h, after which the medium was replaced with serum free medium containing 0.1% 3-[4,5-dimethylthiazol-2-yl]-2,5-diphenyl tetrazolium bromide. Plates were incubated for 3 hours in the dark and total cell number was determined by spectrophotometrically at 540 nm as previously described (Vogt A, Rice RL, Settineri CE, Yokokawa F, Yokokawa S, Wipf P and Lazo JS (1998) Disruption of insulin-like growth factor-1 signaling and down-regulation of Cdc2 by SC-ααδ9, a novel small molecule antisignaling agent identified in a targeted array library. J Pharmacol Exptl Therap 287:806-813.). […] Cells were maintained in RPMI 1640 medium containing 10% fetal bovine serum and the paclitaxel-resistant cells also contained 17 nM paclitaxel and 10 μM verapamil. […] The number of cells was determined spectrophotometrically at 490 nm minus absorbance at 630 nm after exposure to 3-(4,5-dimethylthiazol-2-yl)-5-(3-carboxymethoxyphenyl)-2-(4-sulfophenyl)-2H-tetrazolium and N-methyldibenzopyurazine methyl sulfate. […]

tsFT210 cells = experiment: Flow cytometry, G1 transition in tsFT210 cells; assay type: cell-based, mouse; conditions: 5 or 10 μM, additional 6 hours
recombinant Cdc25 = experiment: In vitro inhibition of recombinant Cdc25; assay type: biochemical; conditions: 30 μM, data not shown
Cdk1 = experiment: Western blotting for Cdk1 phosphorylation status in tsFT210 cells; assay type: cell-based, mouse; conditions: 10 or 20 μM, 6 hours
Protocol: tsFT210 cells were harvested using the same procedure for cell synchronizing and drug exposure as described above for the G2/M flow cytometric analysis. The protein lysates were analyzed by Western blotting for Cdk1 as described previously (Tamura K, Southwick EC, Kerns J, Rosi K, Carr BI, Wilcox C and Lazo JS (2000) Cdc25 inhibition and cell cycle arrest by a synthetic thioalkyl vitamin K analogue. Cancer Res 60:1317-1325.). The inventors used Cdk1 isolated from human MCF-7 cells to assay for in vitro inhibition of enzyme activity because of available antibodies and convenience. Asynchronous cells grown at 37° C. in 5% CO2 in DMEM containing 10% fetal bovine serum were treated with lysis buffer and harvested as previously described (Vogt A, Wang AS, Johnson CS, Fabisiak JP, Wipf P and Lazo JS (2000) In vivo antitumor activity and induction of insulin-like growth factor-1 resistant apoptosis by SC-ααδ9. J Pharmacol Exptl Therap 292:530-537.). Cdk1 kinase activity assay was performed as previously described (Yu L, Orlandi L, Wang P, Orr MS, Senderowicz AM, Sausville EA, Silvestrini R, Watanabe N, Piwnica-Worms H, O° Connor PM (1998) UCN-01 arogates G2 arrest through a Cdc2-dependent pathway that is associated with inactivation of the WeelHu kinase and activation of the Cdc25C phosphatase. J Biol Chem 273: 33455-33464.). […] Histone H1 was separated from other proteins by SDS-PAGE and analyzed for incorporation of radioactive phosphate with a Molecular Dynamics STORM 860 Phospholmager (Sunnyvale, CA).
The major controlling molecule for G2/M transition is the cyclin dependent kinase, Cdk1, whose cellular activity is tightly regulated by phosphorylation (Pines J (1999) Four-dimensional control of the cell cycle. Nature Cell Biol 1:E73-79., Hunter T and Pines J (1994) Cyclins and cancer II: cyclin D and CDK inhibitors come of age. Cell 79:573-582). […] The protein lysates were analyzed by Western blotting for Cdk1 content and phosphorylation status as described elsewhere herein. […]

SMILES | inhibition of paclitaxel-sensitive and -resistant cell growth [1] | IC50 [2] | G1 transition (tsFT210 cells) | inhibition of recombinant Cdc25 activity (recombinant Cdc25) | Cdk1 phosphorylation status (Cdk1)
O=C1C=CC2(Oc3cccc4cccc(c34)O2)c2cccc(OCc3ccco3)c21 [SR-7, 8-(furan-2-ylmethoxy)-1-oxo-1,4-dihydronaphthalene-4-spiro-2′-naphto [1″,8″-de][1′,3′] dioxin] | almost equal inhibition | 3000 nM | not delayed at G1 | no inhibition | Cdk1 was completely dephosphorylated
O=C1C=CC2(Oc3cccc4cccc(c34)O2)c2cccc(O)c21 [palmarumycin CP1, 8-hydroxy-1-oxo-1,4-dihydronaphthalene-4-spiro-2′-naphtho[1″,8″-de] [1′,3′] dioxin, reference compound] |  | 3000 nM |  |  | 
